Test results reported in patent publication US10538789B2, “Methods for biosynthesis of isoprene” (INVISTA NORTH AMERICA S.A.R.L., priority 2013, dated 2020).
One block for each compound: values may come before it.

Assays:
[1] = target: T1, enoyl-CoA hydratase encoded by phaJ (SEQ ID NO: 16) (Aeromonas caviae, UniProt O32472); assay: Native enzyme activity assay in the forward (hydration) direction, spectrophotometry at 263 nm; assay type: biochemical, Aeromonas punctata; conditions: for acceptance as substrate, hydration direction, inferred from reversibility of the enzyme reaction: inferred from the dehydration results and the favoured hydration direction
T1 construct: His tag (C); made in house; host or cells: E. coli BL21[DE3]
T1 sequence (O32472 1-134): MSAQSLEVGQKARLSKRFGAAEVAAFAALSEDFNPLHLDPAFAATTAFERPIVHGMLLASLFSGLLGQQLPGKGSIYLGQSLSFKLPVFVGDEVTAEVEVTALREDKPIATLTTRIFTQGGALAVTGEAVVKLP
Method: (§1) The C-terminal his-tagged phaJ gene (SEQ ID NO: 16) from Aeromonas punctata was cloned into a pE23a expression vector under the T7 promoter. The expression vector was transformed into a BL21[DE3] E. coli host.
(§2) The resulting recombinant E. coli strain was cultivated in a 1L shake flask culture containing 100 mL Luria Broth media at 30° C., shaking at 200 rpm. The culture was induced using 1 mM IPTG for 2 h.
(§3) The pellet from each of the induced shake flask cultures was harvested by centrifugation. The pellet was resuspended in 20 mM HEPES (pH=7.2), 1 mM PMSF and 29U benzonase. The resuspended pellet was lysed via sonication. The cell debris was separated from the supernatant via centrifugation and filtered using a 0.2 μm filter.
(§4) The phaJ enzyme was purified from the supernatant using Ni-affinity chromatography and concentrated to 1.25 mg/mL.
The native enzyme activity assay in the forward (hydration) direction was undertaken in a buffer composed of 10 mM ammonium acetate (pH=8) and 1 mM of crotonyl-CoA from Sigma-Aldrich at 30° C. The enzyme activity assay reaction was initiated by adding 0.4 μM of purified enoyl-CoA hydratase to the assay buffer containing the substrate. The enzyme encoded by phaJ accepted crotonyl-CoA as substrate as confirmed via spectrophotometry at 263 nm at 30° C.

[2] = target: T1, enoyl-CoA hydratase encoded by phaJ (SEQ ID NO: 16); assay: Enzyme activity assay in the reverse (dehydration) direction, LC-MS; assay type: biochemical; conditions: 1 mM substrate, 5 μM purified enzyme, 10 mM ammonium acetate pH 8, 30° C., 1 h
Method: as §1, §2, §3, §4
(§5) The native enzyme activity assay in the reverse (dehydration) direction was undertaken in a buffer composed of 10 mM ammonium acetate (pH=8) and 1 mM of racemic 3-hydroxybutanoyl-CoA. The enzyme activity assay reaction was initiated by adding 5 μM of purified enoyl-CoA hydratase to the assay buffer containing the substrate and incubated at 30° C. for 1 h. The enzyme encoded by phaJ accepted 3-hydroxybutanoyl-CoA as substrate as confirmed via LC-MS.
as §5, with “non-native” for “native”, “3-methyl-3-hydroxypentanoyl-CoA.” for “racemic 3-hydroxybutanoyl-CoA.”, “3-methyl-3-hydroxypentanoyl-CoA” for “3-hydroxybutanoyl-CoA”
The non-native enzyme activity assay in the reverse (dehydration) direction was undertaken in a buffer composed of 10 mM ammonium acetate (pH=8) and 1 mM of 4-methyl-3-hydroxypentanoyl-CoA. […]

[3] = tested on: mevalonate diphosphate decarboxylase of SEQ ID NO: 9 (AHF01884.1); assay: GHMP superfamily enzyme activity assay, headspace GC-MS for isoprene; assay type: biochemical, Thioalkalimicrobium aerophilum; conditions: 10 mM substrate, 30 mM ATP, pH 7.0, 30° C., 24 h, GC-MS versus empty vector control
From the text: (§6) Each of the sequences encoding a C-terminal His-tagged gene encoding the mevalonate diphosphate decarboxylase of SEQ ID NOs: 8, 9, 10, and 11 respectively (see FIGS. 9A-9F) and the mevalonate 3-kinase of SEQ ID NO: 12 (see FIGS. 9A-9F) was cloned into a PD681-CH expression vector under control of the rhapBAD promoter, such that a C-terminal HIS tagged GHMP superfamily enzyme could be produced. Each expression vector was transformed into a BL21[DE3] E. coli host. The resulting recombinant E. coli strains were cultivated at 37° C. in a 5L shake flask culture containing 1L Luria Broth (LB) media and kanamycin antibiotic selection pressure, with shaking at 90 rpm. At an OD600 between 0.6 to 0.8, the culture was induced with L-rhamnose to a final concentration of 2 g/L. The cultures was induced for 6 h at 37° C. The pellets from the induced shake flask cultures were harvested via centrifugation and stored at −20° C. […]
(§7) Each enzyme activity assay was performed in an assay buffer composed of 100 mM HEPES (pH=7.0), 100 mM KCl, 30 mM MgCl2, 30 mM ATP, 2 mM DTT and 10 mM of 3-methyl-3-hydroxypent-4-enoate as substrate. […] The headspace of each glass vial was analysed by GC-MS for isoprene and compared to the empty vector control. […]

[4] = tested on: mevalonate diphosphate decarboxylase of SEQ ID NO: 10 (CAR68209.1); assay: as above; assay type: biochemical, Streptococcus pneumoniae; conditions: 10 mM substrate, 30 mM ATP, pH 7.0, 30° C., 24 h, GC-MS versus empty vector control
From the text: as §6, §7

[5] = target: T2, mevalonate 3-kinase of SEQ ID NO: 12 (CAC12426.1) (Thermoplasma acidophilum, UniProt Q9HIN1); assay: as above; assay type: biochemical; conditions: 10 mM substrate, 30 mM ATP, pH 7.0, 30° C., 24 h, GC-MS versus empty vector control
T2 construct: His tag (C); made in house; host or cells: E. coli BL21[DE3]
T2 sequence (Q9HIN1 1-318): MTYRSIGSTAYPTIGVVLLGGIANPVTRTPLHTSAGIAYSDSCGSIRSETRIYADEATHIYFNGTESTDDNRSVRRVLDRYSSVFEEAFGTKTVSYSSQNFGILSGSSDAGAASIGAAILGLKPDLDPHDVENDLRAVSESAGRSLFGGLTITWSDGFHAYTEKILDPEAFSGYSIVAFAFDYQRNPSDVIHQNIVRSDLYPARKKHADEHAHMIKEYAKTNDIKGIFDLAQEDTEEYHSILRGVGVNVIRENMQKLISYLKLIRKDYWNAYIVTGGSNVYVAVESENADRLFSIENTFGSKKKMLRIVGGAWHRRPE
From the text: as §6, §7

[6] = target: T3, mevalonate diphosphate decarboxylase of SEQ ID NO: 11 (CAA66158.1) (Saccharomyces cerevisiae, UniProt P32377); assay: as above; assay type: biochemical; conditions: 10 mM substrate, 30 mM ATP, pH 7.0, 30° C., 24 h, GC-MS versus empty vector control
T3 construct: His tag (C); made in house; host or cells: E. coli BL21[DE3]
T3 sequence (P32377 1-396): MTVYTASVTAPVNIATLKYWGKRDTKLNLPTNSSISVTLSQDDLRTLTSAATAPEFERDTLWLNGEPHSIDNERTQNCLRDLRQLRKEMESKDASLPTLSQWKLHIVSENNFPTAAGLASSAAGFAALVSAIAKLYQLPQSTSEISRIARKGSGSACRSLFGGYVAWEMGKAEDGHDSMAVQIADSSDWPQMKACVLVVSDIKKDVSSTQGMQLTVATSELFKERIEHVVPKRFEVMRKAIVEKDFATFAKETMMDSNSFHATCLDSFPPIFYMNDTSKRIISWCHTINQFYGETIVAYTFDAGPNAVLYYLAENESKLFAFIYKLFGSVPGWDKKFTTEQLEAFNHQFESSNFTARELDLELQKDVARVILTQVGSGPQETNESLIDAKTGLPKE
From the text: as §6, §7

[7] = tested on: mevalonate diphosphate decarboxylase of SEQ ID NO: 8 (AAK33797.1); assay: as above; assay type: biochemical, Streptococcus pyogenes; conditions: 10 mM substrate, 30 mM ATP, pH 7.0, 30° C., 24 h, GC-MS versus empty vector control
From the text: as §6, §7

[8] = target: T4, linalool dehydratase of SEQ ID NO: 13 (CBW30776.1) (Castellaniella defragrans, UniProt E1XUJ2); assay: Whole cell assay of linalool dehydratase in recombinant E. coli, headspace GC-MS for isoprene; assay type: cell-based; conditions: 20 mM substrate, 160 mg/mL cells in M9 minimal media, 30° C., 48 h, GC-MS versus empty vector control
T4 construct: expressed in transfected cells; host or cells: E. coli BL21[DE3], whole cells
T4 sequence (E1XUJ2 27-397): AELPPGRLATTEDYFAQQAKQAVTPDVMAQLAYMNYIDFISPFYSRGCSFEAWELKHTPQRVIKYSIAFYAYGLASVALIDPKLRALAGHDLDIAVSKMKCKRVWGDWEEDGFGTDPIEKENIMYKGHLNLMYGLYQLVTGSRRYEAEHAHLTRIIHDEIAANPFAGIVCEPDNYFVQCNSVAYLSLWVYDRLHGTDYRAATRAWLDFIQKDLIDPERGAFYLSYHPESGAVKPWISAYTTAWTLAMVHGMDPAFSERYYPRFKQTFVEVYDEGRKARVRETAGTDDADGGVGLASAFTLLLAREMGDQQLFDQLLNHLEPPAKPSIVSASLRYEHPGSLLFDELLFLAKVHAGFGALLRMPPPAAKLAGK
Method: A sequence encoding a C-terminal His-tag encoding the linalool dehydratase of SEQ ID NO: 13 (see FIGS. 9A-9F) was cloned into a pET15 expression vector under control of the T7 promoter such that a C-terminal HIS tagged enzyme could be produced. The expression vector was transformed into a BL21[DE3] E. coli host. The resulting recombinant E. coli strain was cultivated at 30° C. in a 1L shake flask culture containing 100 mL Auto-Induction media and antibiotic selection pressure, shaking at 220 rpm overnight. The pellet from the induced shake flask culture was harvested via centrifugation and used immediately in a whole cell assay.
The pellet was washed and resuspended in M9 minimal media to 160 mg/mL (wet weight) and dispensed into 10 mL crimped glass vials in triplicate. The substrate 3-methyl-3-buten-2-ol was added to a final concentration of 20 mM and incubated at 30° C. at 220 rpm for 48 h. The headspace of each glass vial was analysed by GC-MS for isoprene and compared to the empty vector control (undertaken in triplicate). The gene product of SEQ ID NO: 13 accepted 3-methyl-3-buten-2-ol as substrate as confirmed via GC-MS (see FIG. 15) and synthesized isoprene as reaction product.

Compound: CC(C)C=CC(=O)SCCNC(=O)CCNC(=O)[C@H](O)C(C)(C)COP(=O)(O)OP(=O)(O)OC[C@H]1O[C@@H](n2cnc3c(N)ncnc32)[C@H](O)[C@@H]1OP(=O)(O)O [4-methyl-pent-2-enoyl-CoA]
- acceptance as substrate, hydration direction, inferred from reversibility of the enzyme reaction [1]: accepts

Compound: C/C=C/C(=O)SCCNC(=O)CCNC(=O)[C@H](O)C(C)(C)COP(=O)(O)OP(=O)(O)OC[C@H]1O[C@@H](n2cnc3c(N)ncnc32)[C@H](O)[C@@H]1OP(=O)(O)O [crotonyl-CoA, reference compound]
- acceptance as substrate, forward (hydration) direction ([1]; 1 mM substrate, 0.4 μM purified enzyme, 10 mM ammonium acetate pH 8, 30° C., spectrophotometry at 263 nm): accepted

- acceptance as substrate, reverse (dehydration) direction [2]: accepted
Compound: CCC(C)(O)CC(=O)SCCNC(=O)CCNC(=O)[C@H](O)C(C)(C)COP(=O)(O)OP(=O)(O)OC[C@H]1O[C@@H](n2cnc3c(N)ncnc32)[C@H](O)[C@@H]1OP(=O)(O)O (stereo partly drawn) [3-methyl-3-hydroxypentanoyl-CoA]

Compound: CC(O)CC(=O)SCCNC(=O)CCNC(=O)[C@H](O)C(C)(C)COP(=O)(O)OP(=O)(O)OC[C@H]1O[C@@H](n2cnc3c(N)ncnc32)[C@H](O)[C@@H]1OP(=O)(O)O (mixture of isomers) [3-hydroxybutanoyl-CoA, reference compound]
- acceptance as substrate, reverse (dehydration) direction [2]: accepted

Compound: CCC(C)=CC(=O)SCCNC(=O)CCNC(=O)[C@H](O)C(C)(C)COP(=O)(O)OP(=O)(O)OC[C@H]1O[C@@H](n2cnc3c(N)ncnc32)[C@H](O)[C@@H]1OP(=O)(O)O [3-methyl-pent-2-enoyl-CoA]
- acceptance as substrate, hydration direction, inferred from reversibility of the enzyme reaction [1]: accepts

Compound: C=CC(C)(O)CC(=O)O (stereo not drawn) [3-methyl-3-hydroxypent-4-enoate]
- acceptance as substrate, isoprene as reaction product [3]: accepted
- acceptance as substrate, isoprene as reaction product [4]: accepted
- acceptance as substrate, isoprene as reaction product [5]: accepted
- acceptance as substrate, isoprene as reaction product [6]: accepted
- acceptance as substrate, isoprene as reaction product [7]: accepted

Compound: C=C(C)C(C)O (stereo not drawn) [3-methyl-3-buten-2-ol]
- acceptance as substrate, isoprene as reaction product [8]: accepted

- acceptance as substrate, reverse (dehydration) direction [2]: accepted
Compound: CC(C)C(O)CC(=O)SCCNC(=O)CCNC(=O)[C@H](O)C(C)(C)COP(=O)(O)OP(=O)(O)OC[C@H]1O[C@@H](n2cnc3c(N)ncnc32)[C@H](O)[C@@H]1OP(=O)(O)O (stereo partly drawn) [4-methyl-3-hydroxypentanoyl-CoA]
